These results are taken from patent US20100069393A1, “METHOD OF TREATMENT AND AGENTS USEFUL FOR SAME” (PRANA BIOTECHNOLOGY LIMITED, priority 2006, published 2010).

Data set [1] is described as follows: Mice plasma concentration. The note with it: presence in plasma at one or two time points (between 30 min and 4 h). The format is in vivo.
Data set [2] can be described thus: Neurotoxicity assay: MTS viability of primary cortical neuronal cultures. The format is cell-based, mouse. The note with it: BL6Jx129sv, mouse, primary cortical neuronal cultures, Neuronal cells, read-out: Cytotoxicity (% viable at 1 and 10 uM); for viability at 4 days, 1 uM: test compound 1 uM; for viability at 4 days, 10 uM: test compound 10 uM. The procedure: Media was then replaced with Neurobasal media (Invitrogen Life Technologies) and B27 supplements (Invitrogen Life Technologies). Cultures were maintained at 37° C. in 5% CO2. Prior to experimentation, the culture medium was replaced with Neurobasal media and B27 minus antioxidants (Invitrogen Life Technologies).
Cell viability is determined using the MTS assay. Culture medium is replaced with fresh neurobasal medium plus B27 supplements minus antioxidants. 1/10th volume MTS solution (Cell Titre 96 Aqueous One, Promega Corporation) and incubated at 37° C., 2 hrs. 200 microlitre aliquots are measured with a spectrophotometer at 560 nm.
Neuronal cortical cells were cultured for five days as per Assay 2 in NB media and B27 supplement.
On day six the test compounds were added to the neuronal cell cultures in NB media and B27 supplement minus antioxidants.
Test compounds were dissolved in 100% DMSO to a concentration of 2.5 mM (10 mM if excess compound was weighed out per vial—then diluted to 2.5 mM). […] Test compounds were not added directly to cells, instead they were added to a 48 well ‘Drug Plate’ as comprised below:
The Drug Plate was incubated at 37° C. for 15 mins. 200 μl of each well was added in triplicate to the corresponding cell plate. The cell plate was incubated at 37 C, for 4 days.
On completion of the assay, 1/10 volume MTS was added per well of plate (i.e. 25 μl/250 μl). The plates were incubated at 37 C for 2 hrs, and then absorbance was read at 560 nm.

The nature of data set [3]: Cytotoxicity: viability of M17 cells. The note with it: human, M17 neuroblastoma cells, Cytotoxicity (% viable at 1 and 10 uM); for viability at 1 uM: test compound 1 uM; for viability at 10 uM: test compound 10 uM.
A short description of data set [4]: In vivo toxicity, visual observations. The note with it: number of days.

On to `O=C(NCCc1c[nH]cn1)c1ccc2c(Cl)cc(Cl)c(O)c2n1`, for which the Mice plasma concentration entry in data set [1] is reported as “Up to 2694 ng/mL”. Also, in data set [2], the viability at 4 days, 1 uM came out at 91% and the viability at 4 days, 10 uM came to 84%.

As to `CN(C)Cc1cnc2c(Cl)cc(Cl)c(O)c2n1.Cl`, the Mice plasma concentration result in data set [1] was “Up to 1000 ng/mL”. For the same compound, in data set [2], the viability at 4 days, 1 uM was determined as 106% and the viability at 4 days, 10 uM worked out at 93%.

For the compound `O=c1c(-c2ccc(Cl)cc2)cnc2c(O)cccn12`, in data set [3], the viability at 1 uM amounted to 41.2% and the viability at 10 uM worked out at 25.8%. For the same compound, in data set [2], the viability at 4 days, 1 uM came to 97% and the viability at 4 days, 10 uM was determined as 42%.

Consider `Cc1cnc(-n2cnc3c(O)c(Cl)cc(Cl)c3c2=O)s1`, for which, in data set [2], the viability at 4 days, 1 uM was determined as 94% and the viability at 4 days, 10 uM stood at 70%. Further, the “Toxicity at 30 mg/kg” value in data set [4] was 10 days, mild signs.

Consider `O=c1c2c(Cl)cc(Cl)c(O)c2ncn1N1CCCCC1`, for which, in data set [3], the viability at 1 uM is 87.9% and the viability at 10 uM came out at 72.7%. Moreover, in data set [2], the viability at 4 days, 1 uM is 98% and the viability at 4 days, 10 uM was 51%. For the same compound, in data set [4], the “Toxicity at 30 mg/kg” value was 10 days, none.

Take `O=c1c2c(Cl)cc(Cl)c(O)c2ncn1-c1ccc(Cl)cn1`: in data set [3], the viability at 1 uM is 86.9% and the viability at 10 uM came to 70.5%. In addition, in data set [2], the viability at 4 days, 1 uM worked out at 94% and the viability at 4 days, 10 uM was 58%. Moreover, the “Toxicity at 30 mg/kg” value in data set [4] is on record as 10 days, none.

For the compound `O=c1c2c(Cl)cc(Cl)c(O)c2ncn1N1CCCC1`, in data set [2], the viability at 4 days, 1 uM is 101% and the viability at 4 days, 10 uM was 88%. Besides, the “Toxicity at 30 mg/kg” value in data set [4] is given as 10 days, none.

As to `Nn1cnc2c(O)c(Cl)cc(Cl)c2c1=O`, in data set [3], the viability at 1 uM is 113% and the viability at 10 uM amounted to 104%. In data set [2], the viability at 4 days, 1 uM stood at 103% and the viability at 4 days, 10 uM was 101%.

Regarding `Br.O=c1c2c(Cl)cc(Cl)c(O)c2ncn1Cc1cccc(Cn2cnc3c(Cl)c(Cl)cc(Cl)c3c2=O)n1`, in data set [3], the viability at 1 uM came out at 94.9% and the viability at 10 uM amounted to 26.8%. Further, in data set [2], the viability at 4 days, 1 uM was found to be 89% and the viability at 4 days, 10 uM was 67%. Also, the “Toxicity at 30 mg/kg” value in data set [4] was 10 days, none.

Take `CCCCn1cnc2c(O)c(Cl)cc(Cl)c2c1=O`: in data set [3], the viability at 1 uM was determined as 105% and the viability at 10 uM stood at 95.4%. Further, in data set [2], the viability at 4 days, 1 uM was 104% and the viability at 4 days, 10 uM stood at 85%.

Turning to `CCn1cnc2c(O)c(Cl)cc(Cl)c2c1=O`, in data set [3], the viability at 1 uM was 104% and the viability at 10 uM worked out at 95.9%. Also, in data set [2], the viability at 4 days, 1 uM came to 93% and the viability at 4 days, 10 uM was 58%.

Turning to `CCn1cnc2c(O)c(I)ccc2c1=O`, the “Toxicity at 30 mg/kg” value in data set [4] is on record as 10 days, none.

Take `CCCn1cnc2c(O)c(I)cc(Cl)c2c1=O`: in data set [3], the viability at 1 uM was 120% and the viability at 10 uM stood at 100%. In data set [1], the Mice plasma concentration entry was “Up to 4060 ng/mL”.

Regarding `O=c1c2c(Cl)cc(I)c(O)c2ncn1CC1CC1`, in data set [3], the viability at 1 uM amounted to 97.9% and the viability at 10 uM was determined as 82.3%. Besides, the “Toxicity at 10 mg/kg” value in data set [4] (10 mg/kg) was “At 10 mg/kg: 10 days, none”.

With `CC(C)c1cnc2c(O)c(I)ccn2c1=O`, in data set [3], the viability at 1 uM worked out at 96.7% and the viability at 10 uM is 44.2%. In addition, the “Toxicity at 30 mg/kg” value in data set [4] is 10 days, 1/4 death, remaining 1/3 mild sings.

Take `CCCCc1cnc2c(O)cccn2c1=O`: in data set [3], the viability at 1 uM was 73.6% and the viability at 10 uM is 37%. Further, in data set [4], the “Toxicity at 30 mg/kg” value is recorded as 10 days, none.

Consider `CCCCc1cnc2c(O)c(I)ccn2c1=O`, for which, in data set [3], the viability at 1 uM came to 102% and the viability at 10 uM is 58.7%. Besides, in data set [4], the “Toxicity at 30 mg/kg” value is on record as 10 days, 2/4 deaths.

Regarding `O=c1c2ccc(I)c(O)c2ncn1-c1ccc(F)cc1F`, in data set [3], the viability at 1 uM turned out to be 90.3% and the viability at 10 uM turned out to be 80.3%. Further, the “Toxicity at 30 mg/kg” value in data set [4] is listed as 6 days, 2/4 deaths.

`O=C(NCc1ccc(F)cc1)c1cnc2c(O)c(I)ccn2c1=O`: in data set [3], the viability at 1 uM came to 89.6% and the viability at 10 uM is 23.4%. Also, the “Toxicity at 30 mg/kg” value in data set [4] was 7 days, 4/4 deaths.

In the case of `CN(C)Cc1ccc2c(Cl)cc(I)c(O)c2n1`, in data set [3], the viability at 1 uM was determined as 97.9% and the viability at 10 uM came out at 24.4%. In addition, the “Toxicity at 30 mg/kg” value in data set [4] is 1 day, 3/4 deaths.

With `O=c1c(CCCC2CCSS2)cnc2c(O)cccn12` (stereo not drawn), in data set [3], the viability at 1 uM was 106% and the viability at 10 uM was 27.2%.

In the case of `O=C1c2ccccc2C(=O)N1CCn1cnc2c(O)c(Cl)cc(Cl)c2c1=O`, in data set [3], the viability at 1 uM is 104% and the viability at 10 uM stood at 101%.

Take `O=c1c(-c2ccc(F)cc2)cnc2c(O)cccn12`: in data set [3], the viability at 1 uM turned out to be 75.3% and the viability at 10 uM was 33.8%.

On to `O=c1c2cccc(O)c2ncn1-c1cccnc1`, for which, in data set [3], the viability at 1 uM amounted to 106% and the viability at 10 uM is 110%.

Consider `O=C1NC(=O)c2cc(-n3cnc4c(O)cccc4c3=O)ccc21`, for which, in data set [3], the viability at 1 uM was found to be 102% and the viability at 10 uM came to 103%.

On to `COc1ccc(-n2cnc3c(O)cccc3c2=O)cn1`, for which, in data set [3], the viability at 1 uM was 97.8% and the viability at 10 uM was 110%.

On to `O=c1c2cccc(O)c2ncn1Cc1ccncc1`, for which, in data set [3], the viability at 1 uM stood at 105% and the viability at 10 uM is 104%.

On to `O=c1c2cccc(O)c2ncn1CCc1ccccn1`, for which, in data set [3], the viability at 1 uM stood at 107% and the viability at 10 uM came to 96.2%.

As to `O=c1c2cccc(O)c2ncn1-c1nc2ccccc2[nH]1`, in data set [3], the viability at 1 uM worked out at 108% and the viability at 10 uM was determined as 103%.

`CCCCc1cnc2c(O)c(-c3ccc(F)cc3)ccn2c1=O`: in data set [3], the viability at 1 uM worked out at 101% and the viability at 10 uM was 37.9%.

As to `CCCCc1cnc2c(O)c(-c3ccc(OC)cc3)ccn2c1=O`, in data set [3], the viability at 1 uM was determined as 79.2% and the viability at 10 uM was 64.4%.

For the compound `CCCCc1cnc2c(O)c(-c3cccnc3)ccn2c1=O`, in data set [3], the viability at 1 uM is 92.1% and the viability at 10 uM was 38.2%.

Regarding `O=c1c2cccc(O)c2ncn1Cc1ccc(F)cc1`, in data set [3], the viability at 1 uM was 97.2% and the viability at 10 uM turned out to be 60.5%.

Regarding `CCCCc1cnc2c(O)c(-c3cccc(OC)c3)ccn2c1=O`, in data set [3], the viability at 1 uM is 94.5% and the viability at 10 uM was found to be 59.1%.

With `CCCc1cnc2c(O)c(Cl)ccn2c1=O`, in data set [3], the viability at 1 uM was determined as 98.1% and the viability at 10 uM is 38.9%.

Turning to `O=c1c2c(Cl)cc(Cl)c(O)c2ncn1-c1nc2ccccc2s1`, in data set [3], the viability at 1 uM was found to be 82.7% and the viability at 10 uM was determined as 63.9%.

Turning to `O=C1NC(=O)c2cc(-n3cnc4c(O)c(Cl)cc(Cl)c4c3=O)ccc21`, in data set [3], the viability at 1 uM was determined as 85.4% and the viability at 10 uM was 93.3%. In addition, the “Toxicity at 30 mg/kg” value in data set [4] is given as 10 days, none.

Take `CNS(=O)(=O)Cc1ccc(-n2cnc3c(O)c(Cl)cc(Cl)c3c2=O)cc1`: in data set [3], the viability at 1 uM came to 93% and the viability at 10 uM came out at 98%.

`O=C(O)Cn1cnc2c(O)c(Cl)cc(Cl)c2c1=O`: in data set [3], the viability at 1 uM worked out at 105% and the viability at 10 uM was determined as 101%. For the same compound, the “Toxicity at 30 mg/kg” value in data set [4] is on record as 10 days, none.

As for `Nc1cc(Cn2cnc3c(O)c(Cl)cc(Cl)c3c2=O)ccn1`, in data set [3], the viability at 1 uM came out at 95.1% and the viability at 10 uM is 93.9%. In data set [4], the “Toxicity at 30 mg/kg” value is on record as 10 days, 1 of 4 deaths.

Take `O=c1c2c(Cl)cc(Cl)c(O)c2ncn1CCN1Cc2ccccc2C1`: in data set [3], the viability at 1 uM came out at 103% and the viability at 10 uM is 62.1%.

As for `O=c1c2c(Cl)cc(Cl)c(O)c2nc2n1CCC2`, in data set [3], the viability at 1 uM turned out to be 115% and the viability at 10 uM came to 93.9%.

For the compound `O=c1c2c(Cl)cc(Cl)c(O)c2ncn1CC1CCN(Cc2ccccc2)CC1`, in data set [3], the viability at 1 uM stood at 109% and the viability at 10 uM was determined as 83.4%.

In the case of `CCN(CC)C(=O)Cn1cnc2c(O)c(Cl)cc(Cl)c2c1=O`, in data set [3], the viability at 1 uM was found to be 122% and the viability at 10 uM stood at 104%.

As for `CCNCCn1cnc2c(O)c(Cl)cc(Cl)c2c1=O`, in data set [3], the viability at 1 uM was 100% and the viability at 10 uM stood at 107%.

As to `O=c1c2c(Cl)cc(Cl)c(O)c2ncn1CCNC1CC1`, in data set [3], the viability at 1 uM turned out to be 98.8% and the viability at 10 uM worked out at 96.2%.

Take `Cc1noc(-n2cnc3c(O)c(Cl)cc(Cl)c3c2=O)c1C`: in data set [3], the viability at 1 uM came to 99.6% and the viability at 10 uM turned out to be 95.4%.

Take `CC(C)Cn1c(CN(C)C)nc2c(O)c(Cl)cc(Cl)c2c1=O`: in data set [3], the viability at 1 uM was 104% and the viability at 10 uM amounted to 61.5%.

`Cc1nc2ccccc2c(=O)n1O`: in data set [3], the viability at 1 uM stood at 101% and the viability at 10 uM worked out at 115%.
